Reference: ChEMBL document CHEMBL5226309, “Synthetic RNA Modulators in Drug Discovery” (J Med Chem, 2021)

Assays:
[1] = Binding affinity to telomeric RNA (unknown origin) assessed as dissociation constant
[2] = system: Human immunodeficiency virus 1; assay: Antiviral activity against HIV-1; format: functional, organism-based
[3] = Binding affinity to HIV-1 mRNA assessed as dissociation constant; set-up: species or system Human immunodeficiency virus 1
[4] = Effect on tau protein expression in human SH-SY5Y cells; format: functional, cell-based
[5] = system: U-251; assay: Induction of apoptosis in human U-251 cells at 100 uM; format: functional
[6] = system: MCF7; assay: Induction of apoptosis in human MCF7 cells at 100 uM; format: functional
[7] = Binding affinity to Precursor microRNA-210 (unknown origin) assessed as dissociation constant
[8] = system: MDA-MB-231; assay: Inhibition of Precursor microRNA-210 in human MDA-MB-231 cells at 200 nM relative to control; format: cell-based
[9] = Binding affinity to r(CCUG)12 (unknown origin) assessed as dissociation constant
[10] = Inhibition of r(CCUG)12-MBNL1 (unknown origin) by gel electrophoretic mobility shift assay; set-up: species or system Homo sapiens
[11] = biological target: T1, Muscleblind-like protein 1 (Homo sapiens, UniProt Q9NR56); assay: Binding affinity to MBNL1 (unknown origin) assessed as dissociation constant
T1 sequence (Q9NR56 whole entry): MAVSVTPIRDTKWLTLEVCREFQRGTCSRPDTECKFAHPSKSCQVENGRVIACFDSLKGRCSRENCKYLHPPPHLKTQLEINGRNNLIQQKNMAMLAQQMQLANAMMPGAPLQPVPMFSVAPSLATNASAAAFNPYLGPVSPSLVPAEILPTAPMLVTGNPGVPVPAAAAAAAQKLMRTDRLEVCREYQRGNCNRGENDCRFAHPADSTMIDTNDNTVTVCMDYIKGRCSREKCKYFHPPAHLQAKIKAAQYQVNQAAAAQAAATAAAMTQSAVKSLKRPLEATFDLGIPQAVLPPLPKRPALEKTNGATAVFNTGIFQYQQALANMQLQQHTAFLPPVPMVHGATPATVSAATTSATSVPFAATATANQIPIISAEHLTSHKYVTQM

[12] = Binding affinity to Precursor microRNA-515 (unknown origin) assessed as dissociation constant
[13] = system: HeLa; assay: Cytotoxicity against human HeLa cells; format: functional
[14] = system: Human immunodeficiency virus 1; assay: Antiviral activity against HIV-1 infected in human T cell line assessed as inhibition of DNA replication; format: functional, organism-based; details: Human immunodeficiency virus 1, T-cell
[15] = Downregulation of alpha-Synuclein level in human SH-SY5Y cells at 1 uM relative to control; format: functional
[16] = system: AGS; assay: Inhibition of miR-21 in human AGS cells assessed as decrease in pre-miR-21 level relative to control; format: cell-based; details: dose or concentration not given here
[17] = Inhibition of miR-21 in human AGS cells assessed as decrease in pre-miR-21 level; format: cell-based
[18] = Inhibition of Precursor microRNA-372 (unknown origin) assessed as inhibition of Dicer-induced pre-miR-372 cleavage
[19] = Binding affinity to Precursor microRNA-372 (unknown origin) assessed as dissociation constant
[20] = system: Escherichia coli; assay: In vivo antibacterial activity against Escherichia coli MB5746 infected in DBA/2J mouse assessed as log 10 reduction in CFU in spleen at 60 mg/kg, sc administered every 3 hrs for 24 hrs (reference value: 9.53 log10 CFU); format: functional
[21] = system: Escherichia coli; assay: In vivo antibacterial activity against Escherichia coli MB5746 infected in DBA/2J mouse assessed as log 10 reduction in CFU in spleen at 120 mg/kg, sc administered every 3 hrs for 24 hrs (reference value: 9.53 log10 CFU); format: functional
[22] = system: Escherichia coli; assay: Antibacterial activity against Escherichia coli MB5746; format: functional, organism-based
[23] = Binding affinity to pre-miR-21 (unknown origin) assessed as dissociation constant by Monolith NT.115 microscale thermophoresis based analysis
[24] = Inhibition of miR-18a (unknown orgin) production
[25] = Binding affinity to miR-18a (unknown orgin) assessed as dissociation constant
[26] = biological target: T2, Microtubule-associated protein tau (Homo sapiens, UniProt P10636); assay: Inhibition of tau (unknown origin)
[27] = biological target: Microtubule-associated protein tau (Rattus norvegicus) (UniProt P19332); assay: Inhibition of tau in rat Primary cortical neuron cell assessed as reduction in 4R/3R ratio; format: cell-based; details: concentration not given here
[28] = biological target: T2, Microtubule-associated protein tau; assay: Binding affinity to tau (unknown origin)
[29] = biological target: T2, Microtubule-associated protein tau; assay: Inhibition of tau in human LA-N-5 cells assessed as reduction in 4R/3R ratio; format: cell-based; details: concentration not given here
[30] = Inhibition of 5'FAM-labeled and 3'DAB-labeled Precursor microRNA-372 (unknown origin) assessed as inhibition of Dicer-induced pre-miR-372 cleavage by measuring fluorescence incubated for 30 min in presence of human recombinant Dicer by FRET Dicer assay
[31] = system: AGS; assay: Antiproliferative activity against human AGS cells assessed as reduction in cell viability at 25 uM measured after 4 days by CellTiter96 assay relative to control; format: functional; details: 96 h, time 4 day
[32] = Inhibition of 5'FAM-labeled and 3'DAB-labeled Precursor microRNA-373 (unknown origin) assessed as inhibition of Dicer-induced pre-miR-373 cleavage by measuring fluorescence incubated for 30 min in presence of human recombinant Dicer by FRET Dicer assay
[33] = Inhibition of Precursor microRNA-96 (unknown origin) relative to control; details: concentration not given here
[34] = Binding affinity to Precursor microRNA-96 (unknown origin) assessed as dissociation constant
[35] = Binding affinity to DNA hairpin (unknown origin) assessed as dissociation constant
[36] = system: MDA-MB-231; assay: Inhibition of miR-21 in human MDA-MB-231 cells assessed as decrease in pre-miR-21 level at 50 nM relative to control; format: cell-based
[37] = system: A549; assay: Inhibition of miR-21 in human A549 cells assessed as decrease in pre-miR-21 level at 50 nM relative to control; format: cell-based
[38] = Inhibition of miR-21 in human MDA-MB-231 cells; format: cell-based
[39] = system: A-375; assay: Inhibition of miR-21 in human A-375 cells assessed as decrease in pre-miR-21 level at 50 nM relative to control; format: cell-based
[40] = Upregulation of miR-122 expression in human Huh-7 cells at 10 uM incubated for 48 hrs by RT-PCR analysis relative to control; format: functional

T2 sequence (P10636 whole entry): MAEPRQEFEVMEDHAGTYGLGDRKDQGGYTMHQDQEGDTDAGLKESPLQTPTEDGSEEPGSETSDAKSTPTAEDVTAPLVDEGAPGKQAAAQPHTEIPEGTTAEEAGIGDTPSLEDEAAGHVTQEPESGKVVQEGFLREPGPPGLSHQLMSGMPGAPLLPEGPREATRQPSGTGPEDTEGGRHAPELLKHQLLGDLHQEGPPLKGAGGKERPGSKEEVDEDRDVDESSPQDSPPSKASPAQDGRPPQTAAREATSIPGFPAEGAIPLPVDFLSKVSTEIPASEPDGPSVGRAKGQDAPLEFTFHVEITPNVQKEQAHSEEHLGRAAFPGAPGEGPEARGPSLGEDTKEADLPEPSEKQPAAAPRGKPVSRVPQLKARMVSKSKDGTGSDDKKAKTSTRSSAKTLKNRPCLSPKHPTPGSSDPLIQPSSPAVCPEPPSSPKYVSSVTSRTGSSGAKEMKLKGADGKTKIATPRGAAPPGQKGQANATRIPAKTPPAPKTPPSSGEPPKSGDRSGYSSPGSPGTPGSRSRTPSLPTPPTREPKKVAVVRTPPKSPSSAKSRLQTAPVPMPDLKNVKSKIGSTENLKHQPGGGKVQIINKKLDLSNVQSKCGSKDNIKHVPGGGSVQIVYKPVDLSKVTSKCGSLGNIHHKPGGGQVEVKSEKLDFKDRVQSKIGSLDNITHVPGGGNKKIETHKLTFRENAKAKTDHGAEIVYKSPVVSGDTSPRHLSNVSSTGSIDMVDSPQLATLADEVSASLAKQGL
Sequence of Microtubule-associated protein tau (Rattus norvegicus) (P19332 whole entry): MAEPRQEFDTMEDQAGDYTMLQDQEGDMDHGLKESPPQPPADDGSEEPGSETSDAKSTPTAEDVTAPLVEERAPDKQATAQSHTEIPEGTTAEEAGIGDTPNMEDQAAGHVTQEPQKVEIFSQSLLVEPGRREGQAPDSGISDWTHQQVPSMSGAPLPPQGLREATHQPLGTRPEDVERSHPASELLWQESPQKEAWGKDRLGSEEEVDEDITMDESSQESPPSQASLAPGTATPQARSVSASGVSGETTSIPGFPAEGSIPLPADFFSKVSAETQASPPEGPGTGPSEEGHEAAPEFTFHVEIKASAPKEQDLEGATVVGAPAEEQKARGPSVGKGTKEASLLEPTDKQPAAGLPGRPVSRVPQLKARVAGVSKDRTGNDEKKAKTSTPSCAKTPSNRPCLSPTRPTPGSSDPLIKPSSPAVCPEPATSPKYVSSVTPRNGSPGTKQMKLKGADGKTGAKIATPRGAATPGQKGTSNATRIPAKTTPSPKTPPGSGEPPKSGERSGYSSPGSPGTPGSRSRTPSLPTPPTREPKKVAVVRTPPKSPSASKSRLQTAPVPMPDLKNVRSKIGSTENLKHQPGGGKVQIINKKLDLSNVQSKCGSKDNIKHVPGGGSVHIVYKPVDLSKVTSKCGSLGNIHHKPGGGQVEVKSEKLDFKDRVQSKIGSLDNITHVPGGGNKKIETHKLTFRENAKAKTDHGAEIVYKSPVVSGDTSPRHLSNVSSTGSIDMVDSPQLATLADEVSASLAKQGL

Compound: O=c1c2cc(-c3ccco3)sc2nc2n1Cc1nc3sc(-c4ccco4)cc3c(=O)n1C2
- Kd [1]: 5900 nM

Compound: CC(=O)Nc1nc(CC(=O)c2cccc(NC(=O)[C@@H](N)CCCCNC(=N)N)c2)cs1
- IC50 [2]: 410 nM
- Kd [3]: 110 nM

Compound: N=C(N)NC[C@H]1O[C@H](O[C@@H]2[C@@H](OCCSSCCNCCNc3ccc(NCCNCCO)c4c3C(=O)c3ccccc3C4=O)[C@H](O)[C@@H](NC(=N)N)C[C@H]2NC(=N)N)[C@H](NC(=N)N)[C@@H](O)[C@@H]1O
- EC50 [4]: 57.2 nM

Compound: NC(=O)c1ncn2c(=O)n(NC(=O)c3nc4c(N)cccc4[nH]3)nnc12
- Activity [5]: 30%
- Activity [6]: 30%

Compound: CN1CCN(c2ccc3nc(-c4ccc(OCCCC(=O)NCCCOCC(O)COP(=O)(O)O[C@@H]5[C@H](O)[C@@H](COP(=O)(O)O[C@@H]6[C@H](O)[C@@H](COP(=O)(O)O[C@@H]7[C@H](O)[C@@H](COP(=O)(O)O[C@@H]8[C@H](O)[C@@H](COP(=O)(O)O)O[C@H]8n8cnc9c(N)ncnc98)O[C@H]7n7cnc8c(N)ncnc87)O[C@H]6n6cnc7c(N)ncnc76)O[C@H]5n5cnc6c(N)ncnc65)cc4)[nH]c3c2)CC1 (stereo not given in full)
- Kd [7]: 340 nM
- inhibition [8]: 50%

Compound: N=C(NCCCCNc1nc(N)nc(N)n1)c1ccc(C(=N)NCCCCNc2nc(N)nc(N)n2)cc1
- Kd [9]: 8000 nM
- IC50 [10]: 115000 nM
- Kd [11]: > 200000 nM

Compound: CCCN(CC(=O)N(CCC)CC(=O)N(CCC)CC(=O)N(CCC)CC(=O)N(CC(N)=O)Cc1cn(CCCNC(=O)CCCOc2c(C(C)(C)C)cc(-c3nc4ccc(-c5ccc(N6CCN(C)CC6)cc5)cc4[nH]3)cc2C(C)(C)C)nn1)C(=O)CNCc1cn(CCCNC(=O)CCCOc2c(C(C)(C)C)cc(-c3nc4ccc(-c5ccc(N6CCN(C)CC6)cc5)cc4[nH]3)cc2C(C)(C)C)nn1
- Kd [12]: 60 nM

Compound: O=C1c2c(O)ccc(O)c2C(=O)c2c(NCCNCCO)ccc(NCCNCCO)c21 [MITOXANTRONE]
- Activity [13]: 1 µM
- IC50 [14]: 23100 nM

Compound: N=C(N)c1ccc(Nc2ccc(-c3cc4ccc(C(=N)N)cc4[nH]3)cc2)cc1
- Activity [15]: 67%

Compound: CC(=O)Nc1csc(-c2cccc(NC(=O)CCc3cn(C[C@H]4O[C@@H](O[C@@H]5[C@@H](O)[C@H](N)C[C@H](N)[C@H]5O[C@H]5O[C@H](CN)[C@@H](O)[C@H](O)[C@H]5N)[C@H](O)[C@@H]4O[C@H]4O[C@@H](CN)[C@@H](O)[C@H](O)[C@H]4N)nn3)c2)n1
- inhibition [16]: 100%
- IC50 [17]: 2420 nM

Compound: CNc1ccc(C2c3ccccc3N=C(NCCCNCCCCNCCCN)C2(C)C)cc1 (stereo not given)
- IC50 [18]: 1060 nM
- Kd [19]: 150 nM

Compound: CNc1ncc(CN2CCCC(c3nc(O)cc(-c4cccs4)n3)C2)cn1 (stereo not given)
- Activity [20]: 7.76 log10CFU/g
- Activity [21]: 6.24 log10CFU/g
- IC50 [22]: 300 nM

Compound: CCCN(CC(=O)N(CCC)CC(=O)N(CCC)CC(=O)N(CC(=O)O)Cc1cn(CCCNC(=O)CCCOc2ccc(-c3nc4ccc(-c5ccc(N6CCN(C)CC6)cc5)cc4[nH]3)cc2)nn1)C(=O)CNCc1cn(CCCNC(=O)CCCOc2ccc(-c3nc4ccc(-c5ccc(N6CCN(C)CC6)cc5)cc4[nH]3)cc2)nn1
- Kd [23]: 980 nM

Compound: CN1CCN(c2ccc(-c3ccc4nc(-c5cc(C(C)(C)C)c(OCCCC(=O)NCCCN=[N+]=[N-])c(C(C)(C)C)c5)[nH]c4c3)cc2)CC1
- IC50 [24]: 10000 nM
- Kd [25]: 32000 nM

Compound: COc1ccc2[nH]c3c(c2c1)N=CN(CCCN(C)C1CCCCC1)C3
- IC50 [26]: 2100 nM
- inhibition [27]: 50%
- Kd [28]: 4900 nM
- inhibition [29]: 40%

Compound: NC[C@@H]1O[C@H](O[C@H]2[C@@H](O)[C@H](O[C@@H]3[C@@H](O)[C@H](N)C[C@H](N)[C@H]3O[C@H]3O[C@H](CN)[C@@H](O)[C@H](O)[C@H]3N)O[C@@H]2Cn2cc(CCC(=O)Nc3ccc(-c4csc(NC(=O)c5ccc(Cl)cc5)n4)cc3)nn2)[C@H](N)[C@@H](O)[C@@H]1O
- IC50 [30]: 980 nM
- inhibition at 25 µM [31]: 50%
- IC50 [32]: 2190 nM

Compound: CCCN(CC(=O)N(CCC)CC(=O)N(CC(N)=O)Cc1cn(CCCNC(=O)CCCOc2c(C(C)(C)C)cc(-c3nc4cc(N5CCN(C)CC5)ccc4[nH]3)cc2C(C)(C)C)nn1)C(=O)CCCOc1cccc(-c2nc3ccc(-c4nc5ccc(N6CCN(C)CC6)cc5[nH]4)cc3[nH]2)c1
- inhibition [33]: 50%
- Kd [34]: 85 nM
- Kd [35]: > 50000 nM

Compound: CCCN(CC(=O)N(CCC)CC(=O)N(CCC)CC(=O)N(CC(=O)NCCOCCOCCOCCOc1ccc(/C=C2\SC(Nc3ccccc3)=C(C(=O)OCC)C2=O)cc1O)Cc1cn(CCCNC(=O)CCCOc2ccc(-c3nc4ccc(-c5ccc(N6CCN(C)CC6)cc5)cc4[nH]3)cc2)nn1)C(=O)CNCc1cn(CCCNC(=O)CCCOc2ccc(-c3nc4ccc(-c5ccc(N6CCN(C)CC6)cc5)cc4[nH]3)cc2)nn1
- inhibition [36]: 50%
- inhibition [37]: 50%
- IC50 [38]: 50 nM
- inhibition [39]: 50%

Compound: CN(C)CCN1C(=O)c2cccc3cc(N)cc(c23)C1=O [AMONAFIDE]
- Activity [40]: 450%
